Calls of active or inactive are those of the source.
Key:
Assay type in all cases: functional
[1] = target: Cyclin-dependent kinase 9 (Homo sapiens, UniProt P50750);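 note: value from the CDK9 entry of a kinome-spanning kinase panel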
[2] = target: Serine/threonine-protein kinase pim-2 (Homo sapiens, UniProt Q9P1W9);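 note: value comes from a broad kinase panel profiling study in which PIM2 was one of the panel members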
[3] = target: Tyrosine-protein kinase BTK (Homo sapiens, UniProt Q06187)
[4] = target: Ribosomal protein S6 kinase alpha-3 (Homo sapiens, UniProt P51812);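 note: measured within a kinome-wide profiling panel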
[5] = target: Calcium/calmodulin-dependent protein kinase type II subunit delta (Homo sapiens, UniProt Q13557)
[6] = target: Ribosomal protein S6 kinase beta-1 (Homo sapiens, UniProt P23443);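 note: measured as one member of a kinome-wide profiling panel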
[7] = target: Phosphorylase b kinase gamma catalytic chain, liver/testis isoform (Homo sapiens, UniProt P15735);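 note: PHKG2 measured as one member of a kinome-wide kinase panel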
[8] = target: Aurora kinase B (Homo sapiens, UniProt Q96GD4)
[9] = target: Serine/threonine-protein kinase PLK4 (Homo sapiens, UniProt O00444);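 note: PLK4 measured as one member of a kinome-wide kinase profiling panel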
[10] = target: Receptor-type tyrosine-protein kinase FLT3 (Homo sapiens, UniProt P36888);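 note: FLT3 was tested as one member of a kinome-wide kinase panel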
[11] = target: Serine/threonine-protein kinase D2 (Homo sapiens, UniProt Q9BZL6);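 note: measured against PRKD2 as one member of a kinome-wide kinase profiling panel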
[12] = target: Tyrosine-protein kinase Fer (Homo sapiens, UniProt P16591);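 note: FER tested as one member of a kinome panel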
[13] = target: Serine/threonine-protein kinase Nek4 (Homo sapiens, UniProt P51957)
[14] = target: Fibroblast growth factor receptor 3 (Homo sapiens, UniProt P22607)
[15] = target: Mitogen-activated protein kinase kinase kinase kinase 2 (Homo sapiens, UniProt Q12851);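 note: measured as one member of a kinome-wide kinase panel, with MAP4K2 as the panel entry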
[16] = target: Mitogen-activated protein kinase kinase kinase kinase 5 (Homo sapiens, UniProt Q9Y4K4);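 note: measured as one member of a kinome-spanning kinase panel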
[17] = target: Glycogen synthase kinase-3 alpha (Homo sapiens, UniProt P49840);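 note: GSK3A result taken from a broad kinome-wide kinase panel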
[18] = target: Protein kinase C gamma type (Homo sapiens, UniProt P05129)
[19] = target: Proto-oncogene tyrosine-protein kinase ROS (Homo sapiens, UniProt P08922);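 note: ROS1 tested as one member of a kinome-wide kinase panel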
[20] = target: Serine/threonine-protein kinase pim-1 (Homo sapiens, UniProt P11309)
[21] = target: MAP kinase-activated protein kinase 3 (Homo sapiens, UniProt Q16644);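 note: value comes from a kinome-wide profiling panel in which MAPKAPK3 is one of the panel members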
[22] = target: Tyrosine-protein kinase ABL1 (Homo sapiens, UniProt P00519)
[23] = target: MAP kinase-activated protein kinase 5 (Homo sapiens, UniProt Q8IW41);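 note: measured as one member of a kinome panel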
[24] = target: Misshapen-like kinase 1 (Homo sapiens, UniProt Q8N4C8);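 note: kinome panel screen with MINK as the panel member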
[25] = target: Serine/threonine-protein kinase pim-3 (Homo sapiens, UniProt Q86V86);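 note: value obtained as one member of a broad kinase panel profiling effort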
[26] = target: Ephrin type-A receptor 2 (Homo sapiens, UniProt P29317);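 note: EPHA2 tested as one member of a kinome-wide kinase panel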
[27] = target: Testis-specific serine/threonine-protein kinase 2 (Homo sapiens, UniProt Q96PF2);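 note: part of the Navigating the Kinome panel, target entry STK22B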
[28] = target: STE20-like serine/threonine-protein kinase (Homo sapiens, UniProt Q9H2G2)
[29] = target: Serine/threonine-protein kinase PAK 1 (Homo sapiens, UniProt Q13153)
[30] = target: Serine/threonine-protein kinase 3 (Homo sapiens, UniProt Q13188);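 note: measured as one member of a kinome-wide kinase panel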
[31] = target: cAMP-dependent protein kinase catalytic subunit alpha (Homo sapiens, UniProt P17612)
[32] = target: Casein kinase I isoform gamma-1 (Homo sapiens, UniProt Q9HCP0);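 note: measured as the CSNK1G1 member of a kinome profiling panel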
[33] = target: Insulin-like growth factor 1 receptor (Homo sapiens, UniProt P08069); experiment: Navigating the Kinome. Panel member name: IGF1R
[34] = target: Serine/threonine-protein kinase PLK3 (Homo sapiens, UniProt Q9H4B4)
[35] = target: Death-associated protein kinase 3 (Homo sapiens, UniProt O43293);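 note: measured as one member of a kinome-wide profiling panel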
[36] = target: Megakaryocyte-associated tyrosine-protein kinase (Homo sapiens, UniProt P42679);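 note: affinity measured as one member of a kinase panel (Navigating the Kinome) against MATK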
[37] = target: Mitogen-activated protein kinase 8 (Homo sapiens, UniProt P45983);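 note: value comes from one member of a kinome-wide kinase profiling panel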
[38] = target: cGMP-dependent protein kinase 1 (Homo sapiens, UniProt Q13976);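 note: value from a kinome panel screen with PRKG1 as the panel member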
[39] = target: SRSF protein kinase 1 (Homo sapiens, UniProt Q96SB4);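 note: measured as one member of a kinome-wide kinase profiling panel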
[40] = target: Serine/threonine-protein kinase MRCK alpha (Homo sapiens, UniProt Q5VT25)
[41] = target: Casein kinase II subunit alpha (Homo sapiens, UniProt P68400)
[42] = target: Interleukin-1 receptor-associated kinase 1 (Homo sapiens, UniProt P51617);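 note: IRAK1 tested as one member of a kinome panel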
[43] = target: Tyrosine-protein kinase Lck (Homo sapiens, UniProt P06239);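 note: lck was assayed as one member of a kinase panel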
[44] = target: Non-receptor tyrosine-protein kinase TYK2 (Homo sapiens, UniProt P29597)
[45] = target: Cyclin-dependent kinase 5 (Homo sapiens, UniProt Q00535);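 note: CDK5 measured as one member of a kinase profiling panel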
[46] = target: Calcium/calmodulin-dependent protein kinase type 1 (Homo sapiens, UniProt Q14012)
[47] = target: Tyrosine-protein kinase Srms (Homo sapiens, UniProt Q9H3Y6);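 note: SRMS measured as one member of a kinome-wide kinase profiling panel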

Ephrin type-A receptor 2, sequence (P29317 whole entry): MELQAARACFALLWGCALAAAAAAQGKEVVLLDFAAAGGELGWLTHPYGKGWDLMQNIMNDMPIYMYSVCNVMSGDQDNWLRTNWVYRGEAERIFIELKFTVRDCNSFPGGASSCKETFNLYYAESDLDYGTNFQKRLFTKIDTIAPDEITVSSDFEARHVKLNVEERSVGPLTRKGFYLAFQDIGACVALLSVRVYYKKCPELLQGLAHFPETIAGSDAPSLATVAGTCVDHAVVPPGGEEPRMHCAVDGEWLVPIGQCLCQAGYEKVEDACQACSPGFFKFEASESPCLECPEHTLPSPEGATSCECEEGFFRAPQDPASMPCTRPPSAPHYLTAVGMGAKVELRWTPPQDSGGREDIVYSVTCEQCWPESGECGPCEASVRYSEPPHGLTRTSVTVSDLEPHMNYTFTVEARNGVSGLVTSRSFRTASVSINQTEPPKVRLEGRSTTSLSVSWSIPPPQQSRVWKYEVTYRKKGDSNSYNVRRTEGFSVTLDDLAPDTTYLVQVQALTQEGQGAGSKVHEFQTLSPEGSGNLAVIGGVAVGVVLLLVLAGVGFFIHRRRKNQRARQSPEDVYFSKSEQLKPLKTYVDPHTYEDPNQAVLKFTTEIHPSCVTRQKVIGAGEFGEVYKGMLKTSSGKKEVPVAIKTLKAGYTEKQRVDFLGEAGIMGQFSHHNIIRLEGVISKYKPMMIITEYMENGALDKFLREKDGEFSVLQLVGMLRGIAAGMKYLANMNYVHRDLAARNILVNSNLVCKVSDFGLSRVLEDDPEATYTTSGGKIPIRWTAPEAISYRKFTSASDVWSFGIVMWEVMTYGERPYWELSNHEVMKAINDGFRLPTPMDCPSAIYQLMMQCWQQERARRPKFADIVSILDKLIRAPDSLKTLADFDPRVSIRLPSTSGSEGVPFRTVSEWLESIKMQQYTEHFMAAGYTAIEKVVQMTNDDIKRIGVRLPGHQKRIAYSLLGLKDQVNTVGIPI
Interleukin-1 receptor-associated kinase 1, sequence (P51617 whole entry): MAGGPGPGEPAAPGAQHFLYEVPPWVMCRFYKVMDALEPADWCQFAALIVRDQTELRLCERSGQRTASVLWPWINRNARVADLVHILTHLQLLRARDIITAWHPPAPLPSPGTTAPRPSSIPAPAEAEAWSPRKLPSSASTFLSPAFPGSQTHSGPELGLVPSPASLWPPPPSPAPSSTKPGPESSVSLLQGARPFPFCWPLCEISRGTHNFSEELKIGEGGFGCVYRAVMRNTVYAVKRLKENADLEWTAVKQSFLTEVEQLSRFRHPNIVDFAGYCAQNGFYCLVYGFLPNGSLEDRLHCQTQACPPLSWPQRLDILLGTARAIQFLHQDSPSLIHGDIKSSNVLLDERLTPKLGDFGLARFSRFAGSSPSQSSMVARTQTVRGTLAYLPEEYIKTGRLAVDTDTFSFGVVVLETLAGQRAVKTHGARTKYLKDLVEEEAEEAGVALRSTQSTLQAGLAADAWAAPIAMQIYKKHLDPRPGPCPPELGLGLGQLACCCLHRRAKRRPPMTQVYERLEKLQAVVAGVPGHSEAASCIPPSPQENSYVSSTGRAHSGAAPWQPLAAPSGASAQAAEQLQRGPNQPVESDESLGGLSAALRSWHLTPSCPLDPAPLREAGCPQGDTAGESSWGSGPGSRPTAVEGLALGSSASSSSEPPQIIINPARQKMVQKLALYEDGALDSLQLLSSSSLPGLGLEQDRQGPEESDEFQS
Serine/threonine-protein kinase PLK4, sequence (O00444 whole entry): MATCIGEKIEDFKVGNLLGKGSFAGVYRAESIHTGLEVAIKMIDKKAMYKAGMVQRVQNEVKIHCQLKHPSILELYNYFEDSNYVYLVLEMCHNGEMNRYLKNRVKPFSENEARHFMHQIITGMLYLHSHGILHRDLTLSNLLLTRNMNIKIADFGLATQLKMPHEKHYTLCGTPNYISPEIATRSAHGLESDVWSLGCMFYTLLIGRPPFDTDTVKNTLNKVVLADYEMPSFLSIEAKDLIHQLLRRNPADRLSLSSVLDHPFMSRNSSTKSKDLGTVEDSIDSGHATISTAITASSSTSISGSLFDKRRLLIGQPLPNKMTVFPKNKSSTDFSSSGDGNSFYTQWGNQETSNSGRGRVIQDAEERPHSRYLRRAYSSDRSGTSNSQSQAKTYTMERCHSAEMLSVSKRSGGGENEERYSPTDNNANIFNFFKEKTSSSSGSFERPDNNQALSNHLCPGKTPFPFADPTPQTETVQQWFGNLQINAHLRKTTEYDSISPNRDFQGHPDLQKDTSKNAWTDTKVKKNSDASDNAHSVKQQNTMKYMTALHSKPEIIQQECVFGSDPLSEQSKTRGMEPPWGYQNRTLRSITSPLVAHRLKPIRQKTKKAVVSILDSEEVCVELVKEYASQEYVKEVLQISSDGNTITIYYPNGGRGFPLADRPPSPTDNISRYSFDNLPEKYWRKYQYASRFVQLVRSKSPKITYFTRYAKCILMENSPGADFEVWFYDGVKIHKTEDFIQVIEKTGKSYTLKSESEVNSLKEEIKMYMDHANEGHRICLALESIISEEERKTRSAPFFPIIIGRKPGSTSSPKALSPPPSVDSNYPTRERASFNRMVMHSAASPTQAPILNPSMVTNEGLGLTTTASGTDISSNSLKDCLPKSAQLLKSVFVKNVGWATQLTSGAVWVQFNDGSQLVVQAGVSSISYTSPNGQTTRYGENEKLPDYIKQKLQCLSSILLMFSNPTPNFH
Aurora kinase B, sequence (Q96GD4 whole entry): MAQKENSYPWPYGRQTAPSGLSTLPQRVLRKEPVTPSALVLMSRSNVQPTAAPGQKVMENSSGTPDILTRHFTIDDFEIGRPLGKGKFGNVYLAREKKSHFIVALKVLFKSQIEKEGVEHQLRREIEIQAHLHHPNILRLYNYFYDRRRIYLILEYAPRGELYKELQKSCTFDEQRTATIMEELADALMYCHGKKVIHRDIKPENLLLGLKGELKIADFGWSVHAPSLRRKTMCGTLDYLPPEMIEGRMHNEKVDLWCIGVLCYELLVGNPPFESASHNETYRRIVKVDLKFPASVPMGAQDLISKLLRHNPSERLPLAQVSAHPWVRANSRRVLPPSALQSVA
Tyrosine-protein kinase Fer, sequence (P16591 whole entry): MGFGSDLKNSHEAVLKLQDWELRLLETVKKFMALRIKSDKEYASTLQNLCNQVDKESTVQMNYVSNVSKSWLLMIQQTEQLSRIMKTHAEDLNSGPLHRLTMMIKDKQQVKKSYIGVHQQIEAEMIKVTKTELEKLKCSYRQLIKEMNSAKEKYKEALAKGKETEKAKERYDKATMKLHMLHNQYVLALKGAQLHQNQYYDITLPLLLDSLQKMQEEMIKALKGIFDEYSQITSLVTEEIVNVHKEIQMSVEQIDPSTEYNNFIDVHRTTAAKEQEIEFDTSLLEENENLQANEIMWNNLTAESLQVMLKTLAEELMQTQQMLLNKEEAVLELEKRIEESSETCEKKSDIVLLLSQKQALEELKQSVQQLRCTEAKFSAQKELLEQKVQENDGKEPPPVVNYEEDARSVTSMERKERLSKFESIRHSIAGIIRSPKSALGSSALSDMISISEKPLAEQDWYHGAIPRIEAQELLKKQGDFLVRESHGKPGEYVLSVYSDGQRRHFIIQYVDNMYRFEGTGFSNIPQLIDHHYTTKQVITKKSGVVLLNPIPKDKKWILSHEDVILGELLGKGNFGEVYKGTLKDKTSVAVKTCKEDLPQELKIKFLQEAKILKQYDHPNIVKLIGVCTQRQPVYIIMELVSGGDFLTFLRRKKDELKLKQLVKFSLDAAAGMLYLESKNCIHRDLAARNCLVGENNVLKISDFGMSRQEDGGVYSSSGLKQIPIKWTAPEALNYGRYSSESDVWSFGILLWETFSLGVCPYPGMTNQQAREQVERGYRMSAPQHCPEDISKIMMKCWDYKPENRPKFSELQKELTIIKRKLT
Serine/threonine-protein kinase D2, sequence (Q9BZL6 whole entry): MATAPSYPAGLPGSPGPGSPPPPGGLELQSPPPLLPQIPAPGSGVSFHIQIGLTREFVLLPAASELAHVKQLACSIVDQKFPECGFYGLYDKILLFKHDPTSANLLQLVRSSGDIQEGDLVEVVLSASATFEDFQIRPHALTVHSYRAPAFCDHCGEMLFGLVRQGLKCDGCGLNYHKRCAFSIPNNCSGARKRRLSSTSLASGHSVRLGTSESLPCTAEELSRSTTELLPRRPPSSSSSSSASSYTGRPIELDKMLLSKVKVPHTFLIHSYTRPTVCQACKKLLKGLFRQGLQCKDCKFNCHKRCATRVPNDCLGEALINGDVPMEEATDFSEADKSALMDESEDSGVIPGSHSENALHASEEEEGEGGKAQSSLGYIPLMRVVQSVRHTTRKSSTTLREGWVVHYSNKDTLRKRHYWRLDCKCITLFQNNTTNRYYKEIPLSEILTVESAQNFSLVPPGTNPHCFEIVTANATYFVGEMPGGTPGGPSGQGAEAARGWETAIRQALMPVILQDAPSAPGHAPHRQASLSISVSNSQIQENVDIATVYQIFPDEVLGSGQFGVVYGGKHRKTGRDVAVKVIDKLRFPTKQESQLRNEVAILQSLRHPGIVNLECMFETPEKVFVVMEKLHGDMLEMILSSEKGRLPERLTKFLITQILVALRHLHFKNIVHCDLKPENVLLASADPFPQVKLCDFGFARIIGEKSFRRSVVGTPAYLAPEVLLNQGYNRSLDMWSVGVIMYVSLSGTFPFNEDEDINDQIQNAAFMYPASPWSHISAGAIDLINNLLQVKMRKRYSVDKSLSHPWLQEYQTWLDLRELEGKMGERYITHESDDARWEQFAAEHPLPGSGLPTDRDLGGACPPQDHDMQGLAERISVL

Ki [1]: 31.6 nM (active)
Ki [2]: 1000 nM (active)
Ki [3]: > 1260 nM (inactive)
Ki [4]: 100 nM (active)
Ki [5]: 39.8 nM (active)
Ki [6]: 501 nM (active)
Ki [7]: 158 nM (active)
Ki [8]: 1260 nM (active)
Ki [9]: 3160 nM (active)
Ki [10]: 316 nM (active)
Ki [11]: 501 nM (active)
Ki [12]: 1580 nM (active)
Ki [13]: 3160 nM (active)
Ki [14]: > 2000 nM (inactive)
Ki [15]: 79.4 nM (active)
Ki [16]: 251 nM (active)
Ki [17]: 158 nM (active)
Ki [18]: 251 nM (active)
Ki [19]: > 2000 nM (inactive)
Ki [20]: 501 nM (active)
Ki [21]: > 10000 nM (inactive)
Ki [22]: > 631 nM (inactive)
Ki [23]: > 1580 nM (inactive)
Ki [24]: 126 nM (active)
Ki [25]: 501 nM (active)
Ki [26]: > 3160 nM (inactive)
Ki [27]: 100 nM (active)
Ki [28]: 316 nM (active)
Ki [29]: 3160 nM (active)
Ki [30]: 251 nM (active)
Ki [31]: 25.1 nM (active)
Ki [32]: 316 nM (active)
Ki [33]: > 2000 nM (inactive)
Ki [34]: > 7940 nM (inactive)
Ki [36]: > 2000 nM (inactive)
Ki [37]: > 3160 nM (inactive)
Ki [38]: 158 nM (active)
Ki [39]: 1260 nM (active)
Ki [40]: 63.1 nM (active)
Ki [41]: > 6310 nM (inactive)
Ki [42]: 39.8 nM (active)
Ki [43]: > 2510 nM (inactive)
Ki [44]: > 2000 nM (inactive)
Ki [45]: 50.1 nM (active)
Ki [46]: > 2000 nM (inactive)
Ki [47]: > 1580 nM (inactive)
SMILES: NC1CCCCC1Nc1nccc(-c2c[nH]c3ncccc23)n1 (configuration not stated)
Ki [35]: 39.8 nM (active)

Source: ChEMBL document CHEMBL1201862, “PubChem BioAssay data set” (2004)
